Laboratory results taken from patent EP0038251A1, “Derivatives of osides, their preparation and their biological applications” (ANVAR Agence Nationale de Valorisation de la Recherche, priority 1980, dated 1981).

Test system: hémolysines anti-B
Experiment: Neutralisation of anti-B haemolysins: inhibition of one agglutinating dose of an anti-B test serum (European Pharmacopoeia techniques)
Type: biochemical
Settings: dilution 1/5 of a 10 mg/ml solution
Description: On utilise une solution à 10 mg/ml du produit de formule XXVI.

C[C@@H]1O[C@@H](O[C@H]2[C@H](OCCCOCCCN)O[C@H](CO)[C@H](O)[C@@H]2O[C@H]2O[C@H](CO)[C@H](O)[C@H](O)[C@H]2O)[C@@H](O)[C@H](O)[C@@H]1O [trisaccharide XXVI]
inhibition d'une dose agglutinante d'un sérum-test anti-B: inhibition totale
